Data on 65 molecules can be found in BindingDB's records for PubMed 39442337 (China Pharmaceutical University).

The nature of test [1]: Antagonist activity at PAR4 in mouse washed platelets assessed as inhibition of gamma-PAR4 agonist peptide (AYPGKF-NH2)-induced platelet aggregation preincubated for 5 mins followed by peptide addition and measured after 5 mins by aggregometer.
Test [2] is described as follows: Antagonist activity at PAR4 in human platelet rich plasma assessed as inhibition of gamma-PAR4 agonist peptide (AYPGKF-NH2)-induced platelet aggregation preincubated for 5 mins followed by peptide addition and measured after 5 mins by aggregometer.

Some results are limits rather than exact numbers.

For orientation: IC50 means the point on the concentration scale where inhibition reaches its midpoint. Regarding `COc1cc(Cl)c2nc(-c3cc(C)cc4cncnc34)sc2c1`, the IC50 in test [1] amounted to 72 nM.
Same read-out and setting: under `COc1cc(Cl)c2nc(-c3cc(C)cc4cnc(C)nc34)sc2c1` stands 64 nM; under `COc1cc(Cl)c2nc(-c3cc(C)cc4cnc(OC)nc34)sc2c1`, 32 nM; under `COc1cc(Cl)c2nc(-c3cc(C)cc4cnc(OC(F)F)nc34)sc2c1`, 87 nM.
`CCOc1ncc2cc(C)cc(-c3nc4c(Cl)cc(OC)cc4s3)c2n1`: the IC50 in test [1] worked out at 567 nM.
On the same count and under the same terms, under `COc1cc(Cl)c2nc(-c3cc(C)cc4cnc(OC(C)C)nc34)sc2c1` stands 773 nM; under `COc1cc(Cl)c2nc(-c3cc(C)cc4cnc(OCC(C)C)nc34)sc2c1`, greater than 1000 nM; under `COc1cc(Cl)c2nc(-c3cc(C)cc4cnc(OC5CCCC5)nc34)sc2c1`, 986 nM.
Still for that read-out and setting: the same measure for `COCCOc1ncc2cc(C)cc(-c3nc4c(Cl)cc(OC)cc4s3)c2n1`: greater than 1000 nM.
`COCCCOc1ncc2cc(C)cc(-c3nc4c(Cl)cc(OC)cc4s3)c2n1`: in test [1], the IC50 stood at 963 nM.
Take `COc1cc(Cl)c2nc(-c3cc(C)cc4cnc(SC)nc34)sc2c1`: in test [1], the IC50 was found to be 89 nM.
As to `CNc1ncc2cc(C)cc(-c3nc4c(Cl)cc(OC)cc4s3)c2n1`, the IC50 in test [1] was found to be 98 nM.
`COc1cc(Cl)c2nc(-c3cc(C)cc4cnc(N(C)C)nc34)sc2c1`: the IC50 in test [1] was found to be 105 nM.
The same measure, in the same setting: under `COc1cc(Cl)c2nc(-c3cc(C)cc4cnc(N5CCOCC5)nc34)sc2c1` stands 220 nM; under `COc1cc(Cl)c2nc(-c3cc(C)cc4cnc(N5CCCCC5)nc34)sc2c1`, 335 nM; under `COc1cc(Cl)c2nc(-c3cc(C)cc4cnc(N5CCC6(CC5)OCCO6)nc34)sc2c1`, greater than 1000 nM.
Consider `COc1cc(Cl)c2nc(-c3cc(C)cc4cnc(N5CC6(COC6)C5)nc34)sc2c1`, for which the IC50 in test [1] was greater than 1000 nM.
As to `COc1ncc2cc(C)cc(-c3nc4ccccc4s3)c2n1`, the IC50 in test [1] amounted to 563 nM.
On to `COc1ncc2cc(C)cc(-c3nc4c(C)cc5c(c4s3)OCCO5)c2n1`, for which the IC50 in test [1] turned out to be 117 nM.
As to `COc1ncc2cc(C)cc(-c3nc4c(Cl)cc(Cl)cc4s3)c2n1`, the IC50 in test [1] was determined as 356 nM.
For the molecule `COc1ccc2nc(-c3cc(C)cc4cnc(OC)nc34)sc2c1`, the IC50 in test [1] is 89 nM.
On the same count and under the same terms, under `COc1cc(F)c2nc(-c3cc(C)cc4cnc(OC)nc34)sc2c1` stands 41 nM.
Still for that read-out and setting: under `COc1ncc2cc(C)cc(-c3nc4cc(F)c(OC)cc4s3)c2n1` stands 30 nM; under `COc1cc(Cl)c2nc(-c3cc(C)cc4nc(OC)ncc34)sc2c1`, 46 nM; under `COc1cc(F)c2nc(-c3cc(C)cc4nc(OC)ncc34)sc2c1`, 80 nM.
As for `COc1ccc2nc(-c3cc(C)cc4nc(OC)ncc34)sc2c1`, the IC50 in test [1] is 103 nM.
Same read-out and setting: the same measure for `COc1cc(OC)c2nc(-c3cc(C)cc4nc(OC)ncc34)sc2c1`: 223 nM; for `COc1ncc2c(-c3nc4ccccc4s3)cc(C)cc2n1`: 368 nM; for `COc1cc(C)c2nc(-c3cc(C)cc4nc(OC)ncc34)sc2c1`: 163 nM.
Consider `COc1ncc2c(-c3nc4cc(F)c(OC)cc4s3)cc(C)cc2n1`, for which the IC50 in test [1] stood at 21 nM.
Same read-out and setting: the same measure for `COc1ncc2c(-c3nc4cc(F)c(OCCO)cc4s3)cc(C)cc2n1`: 27 nM.
On the same count and under the same terms, under `CCOc1ncc2c(-c3nc4c(Cl)cc(OC)cc4s3)cc(C)cc2n1` stands 223 nM; under `CCOc1ncc2c(-c3nc4c(F)cc(OC)cc4s3)cc(C)cc2n1`, 274 nM; under `CCOc1ncc2c(-c3nc4cc(F)c(OC)cc4s3)cc(C)cc2n1`, 369 nM.
As for `COc1cc(Cl)c2nc(-c3cc(C)cc4nc(OC(C)C)ncc34)sc2c1`, the IC50 in test [1] came out at 456 nM.
For `COc1ccc2nc(-c3cc(C)cc4nc(OC(C)C)ncc34)sc2c1`, the half-inhibitory concentration (IC50) in test [1] was 362 nM.
Still for that read-out and setting: under `COCOc1ncc2c(-c3nc4c(Cl)cc(OC)cc4s3)cc(C)cc2n1` stands 45 nM; under `COCOc1ncc2c(-c3nc4c(F)cc(OC)cc4s3)cc(C)cc2n1`, 89 nM; under `COCOc1ncc2c(-c3nc4cc(F)c(OC)cc4s3)cc(C)cc2n1`, 25 nM.
Still for that read-out and setting: the same measure for `COCOc1ncc2c(-c3nc4ccc(OC)cc4s3)cc(C)cc2n1`: 109 nM.
Turning to `CNc1ncc2c(-c3nc4c(Cl)cc(OC)cc4s3)cc(C)cc2n1`, the IC50 in test [1] was 223 nM.
For the molecule `COc1cc(Cl)c2nc(-c3cc(C)cc4nc(SC)ncc34)sc2c1`, in test [1], the IC50 was 136 nM.
Still for that read-out and setting: the same measure for `COc1cc2sc(-c3cc(C)cc4nc(SC)ncc34)nc2cc1F`: 96 nM; for `COc1ccc2nc(-c3cc(C)cc4nc(SC)ncc34)sc2c1`: 223 nM; for `COc1cc(OC)c2nc(-c3cc(C)cc4nc(SC)ncc34)sc2c1`: greater than 1000 nM.
The same measure, in the same setting: under `COCc1ncc2c(-c3nc4cc(F)c(OCCOC(=O)Nc5cccc(C#N)c5)cc4s3)cc(C)cc2n1` stands 69 nM.
`COCc1ncc2c(-c3nc4cc(F)c(OCCOC(=O)Nc5cc(F)cc(C#N)c5)cc4s3)cc(C)cc2n1`: the IC50 worked out at 19 nM in test [1] and 9.5 nM in test [2].
`COCc1ncc2c(-c3nc4cc(F)c(OCCOC(=O)Nc5ccc(C(=O)N6CCOCC6)cc5)cc4s3)cc(C)cc2n1`: the IC50 in test [1] is 89 nM.
Still for that read-out and setting: under `COCc1ncc2c(-c3nc4cc(F)c(OCCOC(=O)N5CCOCC5)cc4s3)cc(C)cc2n1` stands 756 nM.
Turning to `COCc1ncc2c(-c3nc4cc(F)c(OCCOC(=O)OC)cc4s3)cc(C)cc2n1`, the IC50 in test [1] came to 643 nM.
Turning to `COc1ncc2c(-c3nc4cc(F)c5c(c4s3)C[C@H](COC(=O)Nc3cccc(C#N)c3)O5)cc(C)cc2n1`, the IC50 in test [1] was 15 nM; in test [2] it was 6.4 nM.
The like results for `COc1ncc2c(-c3nc4cc(F)c5c(c4s3)C[C@H](COC(=O)Nc3cc(F)cc(C#N)c3)O5)cc(C)cc2n1` were, in that order, 8.6 nM and 3.5 nM.
With `COc1ncc2c(-c3nc4cc(F)c5c(c4s3)C[C@H](COC(=O)Nc3ccc(OC)c(F)c3)O5)cc(C)cc2n1`, the IC50 in test [1] is 169 nM.
Turning to `COc1ccc(NC(=O)OC[C@H]2Cc3c(c(F)cc4nc(-c5cc(C)cc6nc(OC)ncc56)sc34)O2)c(C)c1`, the IC50 in test [1] was 187 nM.
For the molecule `COc1ccc(NC(=O)OC[C@H]2Cc3c(c(F)cc4nc(-c5cc(C)cc6nc(OC)ncc56)sc34)O2)cc1`, the IC50 in test [1] was found to be 96 nM.
Same read-out and setting: the same measure for `COc1ncc2c(-c3nc4cc(F)c5c(c4s3)C[C@H](COC(=O)Nc3ccc(C)cc3)O5)cc(C)cc2n1`: 73 nM; for `COc1ncc2c(-c3nc4cc(F)c5c(c4s3)C[C@H](COC(=O)Nc3ccc(C)cc3F)O5)cc(C)cc2n1`: 51 nM.
For the molecule `COc1ccc(NC(=O)OC[C@H]2Cc3c(c(F)cc4nc(-c5cc(C)cc6nc(OC)ncc56)sc34)O2)cn1`, the IC50 in test [1] turned out to be 356 nM.
For the molecule `COc1ncc2c(-c3nc4cc(F)c5c(c4s3)C[C@H](COC(=O)Nc3cnc(C)nc3)O5)cc(C)cc2n1`, the IC50 in test [1] turned out to be 689 nM.
Still for that read-out and setting: the same measure for `COc1ncc2c(-c3nc4cc(F)c5c(c4s3)C[C@H](COC(=O)Nc3ccc(C(=O)N4CCOCC4)cc3)O5)cc(C)cc2n1`: 417 nM; for `COc1ncc2c(-c3nc4cc(F)c5c(c4s3)C[C@H](COC(=O)N3CCOCC3)O5)cc(C)cc2n1`: 168 nM.
The same measure, in the same setting: the same measure for `COC(=O)OC[C@H]1Cc2c(c(F)cc3nc(-c4cc(C)cc5nc(OC)ncc45)sc23)O1`: 535 nM.
On the same count and under the same terms, the same measure for `COc1ncc2c(-c3nc4cc(F)c5c(c4s3)C[C@@H](COC(=O)Nc3ccc(C(=O)N4CCOCC4)cc3)O5)cc(C)cc2n1`: 165 nM; for `COc1ncc2c(-c3nc4cc(F)c5c(c4s3)C[C@@H](COC(=O)Nc3cc(F)cc(C#N)c3)O5)cc(C)cc2n1`: 109 nM; for `COc1ncc2c(-c3nc4cc(F)c5c(c4s3)C[C@@H](COC(=O)N3CCOCC3)O5)cc(C)cc2n1`: 304 nM.
